Data published in patent US20090099195A1 (ASTRAZENECA AB, priority 2007, published 2009).

Biological target: T1, hP2X3 (human Purinergic P2X receptors subtype 3), clone B (Homo sapiens, UniProt P56373)
T1 sequence (P56373 1-397): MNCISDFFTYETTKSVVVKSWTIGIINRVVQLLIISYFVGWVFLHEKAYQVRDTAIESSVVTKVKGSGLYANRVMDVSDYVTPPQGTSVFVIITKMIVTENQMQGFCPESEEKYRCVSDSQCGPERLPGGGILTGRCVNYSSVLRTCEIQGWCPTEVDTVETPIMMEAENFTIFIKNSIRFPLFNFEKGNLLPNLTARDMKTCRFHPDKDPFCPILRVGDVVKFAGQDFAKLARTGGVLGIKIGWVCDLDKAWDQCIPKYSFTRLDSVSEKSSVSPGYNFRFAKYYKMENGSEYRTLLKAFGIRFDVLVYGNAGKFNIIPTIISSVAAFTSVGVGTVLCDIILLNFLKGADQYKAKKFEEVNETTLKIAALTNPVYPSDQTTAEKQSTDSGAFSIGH
Test: hP2X3 FLIPR calcium (Fluo-4) antagonist assay, clone B
Details: Human P2X3 FLIPR Clone B IC50 (nM), RLE cells expressing hP2X3 clone B (NM_002559); agonist 500 nM α,β-methylene-ATP
Protocol: The assay used a calcium indicator dye (Fluo-4) that emits fluorescence, the intensity of which is related to the concentration of calcium that entered the cell when P2X3 was activated and the channel opened. Activation of hP2X3 or rat P2X3 and rat P2X2/3 (from the coexpression of rat P2X3 and rat P2×2) is elicited the by P2X3 agonist α,β methylene-ATP (Sigma M6517), and the resulting fluorescence is measured with a FLIPR II™ instrument (Molecular Devices). Compounds are tested for their ability to inhibit the agonist-induced fluorescent signal.
For the rat P2X2/3 HEK-TREX cells, induction of the rat P2X3 expression is used to generate the rat P2X2/3 channels in HEK-TREX cells and performed by addition of 1 μg/mL tetracycline (Invitrogen) 24 h prior to compounds testing to the HEK-TREX expressing the rat P2X2 constitutively. On the day of the experiment, the cells and test compounds are prepared as follows. […] After preparing the compounds, the medium is removed from the cell plates by inversion. A loading solution of 30 μL assay buffer containing 4 μM of the calcium indicator dye FLUO-4 AM (Molecular Probes F14202) is added to each well using a Multidrop (Labsystems). […] The incubation is terminated by washing the cells four times in assay buffer using a Skatron Embla (Molecular Devices), and 25 μL of assay buffer was left in each well. Cell plates are then transferred to the FLIPR. Experiments are initiated by measuring a baseline fluorescence reading for 10 seconds, followed by the addition of 12.5 μL of cpds and data sampling for a total 280 seconds. The experiments are terminated by addition of 12.5 μL of a reference agonist (500 nM α,β-methylene-ATP) or buffer, producing a final assay volume of 50 μL followed by data sampling for an additional 280 seconds.
In P2X3 antagonist experiments (human and rat assays) data are analysed as normalised maximal peak fluorescence monitored following agonist addition and calculated as percent of relative fluorescent counts from control agonist. The dose-response antagonist inhibition curves are analyzed in a 4-parameter sigmoidal fit using a non-linear curve-fitting program (XLfit version 5.0.6, ID Business Solutions Limited, Guildford, UK).

Compound	IC50 [nM]
CC(C)N1Cc2c(NCc3cnc4ccccc4c3)nc(N3CCN(C(=O)N(C)C)CC3)nc2C1=O [Example 221, N,N-dimethyl-4-{6-(1-methylethyl)-7-oxo-4-[(quinolin-3-ylmethyl)amino]-6,7-dihydro-5H-pyrrolo[3,4-d]pyrimidin-2-yl}piperazine-1-carboxamide]	5800
CC(C)N1Cc2c(NCc3cnc4ccccc4c3)nc(N3CCN(C(=O)C4CC4)CC3)nc2C1=O [Example 222, 2-[4-(cyclopropylcarbonyl)piperazin-1-yl]-6-(1-methylethyl)-4-[(quinolin-3-ylmethyl)amino]-5,6-dihydro-7H-pyrrolo[3,4-d]pyrimidin-7-one]	6300
CCN1CCN(c2cc(C(F)(F)F)ccc2CNc2nc(N3CCN(C(C)=O)CC3)nc3c2CN(C(C)C)C3=O)CC1 [Example 223, 2-(4-acetylpiperazin-1-yl)-4-(2-(4-ethylpiperazin-1-yl)-4-(trifluoromethyl)benzylamino)-6-isopropyl-5H-pyrrolo[3,4-d]pyrimidin-7(6H)-one]	620
CC(=O)N1CCN(c2nc(N[C@H](C)c3ccccc3C(F)(F)F)c3c(n2)C(=O)N(C(C)C)C3)CC1 [Example 226, (R)-2-(4-acetylpiperazin-1-yl)-6-isopropyl-4-(1-(2-(trifluoromethyl)phenyl)ethylamino)-5H-pyrrolo[3,4-d]pyrimidin-7(6H)-one]	4400
CC(=O)N1CCN(c2nc(NCc3ccc(-c4ccccc4)nc3)c3c(n2)C(=O)N(C(C)C)C3)CC1 [Example 228, 2-(4-acetylpiperazin-1-yl)-6-isopropyl-4-((6-phenylpyridin-3-yl)methylamino)-5H-pyrrolo[3,4-d]pyrimidin-7(6H)-one]	8800
CC(=O)N1CCN(c2nc(N[C@@H](C)c3cnc4ccccc4c3)c3c(n2)C(=O)N(C(C)C)C3)CC1 [Example 234, (S)-2-(4-acetylpiperazin-1-yl)-6-isopropyl-4-(1-(quinolin-3-yl)ethylamino)-5H-pyrrolo[3,4-d]pyrimidin-7(6H)-one]	1100
COc1ccc(CNc2nc(N3CCN(C(C)=O)CC3)nc3c2CN(C(C)C)C3=O)c2cccnc12 [Example 240, 2-(4-acetylpiperazin-1-yl)-6-isopropyl-4-((8-methoxyquinolin-5-yl)methylamino)-5H-pyrrolo[3,4-d]pyrimidin-7(6H)-one]	1500
CC(=O)N1CCN(c2nc(NCc3cc4ccccc4nc3C)c3c(n2)C(=O)N(C(C)C)C3)CC1 [Example 241, 2-(4-acetylpiperazin-1-yl)-6-isopropyl-4-((2-methylquinolin-3-yl)methylamino)-5H-pyrrolo[3,4-d]pyrimidin-7(6H)-one]	68
CC(=O)N1CCN(c2nc(N[C@H](C)c3ccc(OC(CF)CF)cc3)c3c(n2)C(=O)N(C(C)C)C3)CC1 [Example 250, (R)-2-(4-acetylpiperazin-1-yl)-4-(1-(4-(1,3-difluoropropan-2-yloxy)phenyl)ethylamino)-6-isopropyl-5H-pyrrolo[3,4-d]pyrimidin-7(6H)-one]	430
CC(=O)N1CCN(c2nc(N[C@@H](C)c3ccc(OC(CF)CF)cc3)c3c(n2)C(=O)N(C(C)C)C3)CC1 [Example 251, (S)-2-(4-acetylpiperazin-1-yl)-4-(1-(4-(1,3-difluoropropan-2-yloxy)phenyl)ethylamino)-6-isopropyl-5H-pyrrolo[3,4-d]pyrimidin-7(6H)-one]	5200
CC(=O)N1CCN(c2nc3c(c(N(Cc4cc5ccccc5cn4)C(C)C)n2)CN(C(C)C)C3=O)CC1 [Example 254, 2-(4-acetylpiperazin-1-yl)-6-isopropyl-4-(isopropyl(isoquinolin-3-ylmethyl)amino)-5H-pyrrolo[3,4-d]pyrimidin-7(6H)-one]	75
CC(=O)N1CCN(c2nc3c(c(N(Cc4cc5ccccc5cn4)CC(F)F)n2)CN(C(C)C)C3=O)CC1 [Example 256, 2-(4-acetylpiperazin-1-yl)-4-((2,2-difluoroethyl)(isoquinolin-3-ylmethyl)amino)-6-isopropyl-5H-pyrrolo[3,4-d]pyrimidin-7(6H)-one]	46
CC(=O)N1CCN(c2nc3c(c(N(Cc4cc5ccccc5cn4)CC(F)(F)F)n2)CN(C(C)C)C3=O)CC1 [Example 264, 2-(4-acetylpiperazin-1-yl)-6-isopropyl-4-((isoquinolin-3-ylmethyl)(2,2,2-trifluoroethyl)amino)-5H-pyrrolo[3,4-d]pyrimidin-7(6H)-one]	2900
CC(=O)N1CCN(c2nc(NCc3nc(C4CCCC4)no3)c3c(n2)C(=O)N(C(C)C)C3)CC1 [Example 276, 4-(4-acetylpiperazin-1-yl)-2-[(3-cyclopentyl-1,2,4-oxadiazol-5-yl)methylamino]-8-propan-2-yl-3,5,8-triazabicyclo[4.3.0]nona-1,3,5-trien-7-one]	590

Other lines, results leading:

IC50 [nM]	Compound
4100	CC(=O)N1CCN(c2nc(NC3CCN(c4cccc(C)c4)C3)c3c(n2)C(=O)N(C(C)C)C3)CC1 (stereo not shown) [Example 224, 2-(4-acetylpiperazin-1-yl)-6-isopropyl-4-(1-m-tolylpyrrolidin-3-ylamino)-5H-pyrrolo[3,4-d]pyrimidin-7(6H)-one]
8500	COc1cccc([C@@H](C)Nc2nc(N3CCN(C(C)=O)CC3)nc3c2CN(C(C)C)C3=O)c1 [Example 227, (R)-2-(4-acetylpiperazin-1-yl)-6-isopropyl-4-(1-(3-methoxyphenyl)ethylamino)-5H-pyrrolo[3,4-d]pyrimidin-7(6H)-one]
500	CC(=O)N1CCN(c2nc(NCc3cc4ccccc4n3C)c3c(n2)C(=O)N(C(C)C)C3)CC1 [Example 237, 2-(4-acetylpiperazin-1-yl)-6-isopropyl-4-((1-methyl-1H-indol-2-yl)methylamino)-5H-pyrrolo[3,4-d]pyrimidin-7(6H)-one]
1200	CC(=O)N1CCN(c2nc3c(c(N(C)Cc4ccc5ncccc5c4)n2)CN(C(C)C)C3=O)CC1 [Example 239, 2-(4-acetylpiperazin-1-yl)-6-isopropyl-4-(methyl(quinolin-6-ylmethyl)amino)-5H-pyrrolo[3,4-d]pyrimidin-7(6H)-one]
6500	CC(=O)N1CCN(c2nc(N[C@@H](C)c3ccc4ncccc4c3)c3c(n2)C(=O)N(C(C)C)C3)CC1 [Example 244, (S)-2-(4-acetylpiperazin-1-yl)-6-isopropyl-4-(1-(quinolin-6-yl)ethylamino)-5H-pyrrolo[3,4-d]pyrimidin-7(6H)-one]
6300	CC(=O)N1CCN(c2nc(NCc3ccc4ccccc4n3)c3c(n2)C(=O)N(C(C)C)C3)CC1 [Example 248, 2-(4-acetylpiperazin-1-yl)-6-isopropyl-4-(quinolin-2-ylmethylamino)-5H-pyrrolo[3,4-d]pyrimidin-7(6H)-one]
6000	CC(=O)N1CCN(c2nc3c(c(N(C)Cc4ccc5ccccc5n4)n2)CN(C(C)C)C3=O)CC1 [Example 249, 2-(4-acetylpiperazin-1-yl)-6-isopropyl-4-(methyl(quinolin-2-ylmethyl)amino)-5H-pyrrolo[3,4-d]pyrimidin-7(6H)-one]
1000	CC(=O)N1CCN(c2nc3c(c(N4CCCCC4Cc4ccccc4)n2)CN(C(C)C)C3=O)CC1 (stereo not shown) [Example 266, 4-(4-acetylpiperazin-1-yl)-2-(2-benzyl-1-piperidyl)-8-propan-2-yl-3,5,8-triazabicyclo[4.3.0]nona-1,3,5-trien-7-one]
480	CC(=O)N1CCN(c2nc3c(c(N4CCCC4c4ccc(N(C)C)cc4)n2)CN(C(C)C)C3=O)CC1 (stereo not shown) [Example 267, 4-(4-acetylpiperazin-1-yl)-2-[2-(4-dimethylaminophenyl)pyrrolidin-1-yl]-8-propan-2-yl-3,5,8-triazabicyclo[4.3.0]nona-1,3,5-trien-7-one]
740	CC(=O)N1CCN(c2nc3c(c(N4CCCC4c4cccc(C)c4)n2)CN(C(C)C)C3=O)CC1 (stereo not shown) [Example 269, 4-(4-acetylpiperazin-1-yl)-2-[2-(3-methylphenyl)pyrrolidin-1-yl]-8-propan-2-yl-3,5,8-triazabicyclo[4.3.0]nona-2,4,10-trien-7-one]
870	CC(=O)N1CCN(c2nc3c(c(N4CCCC4CCc4ccccc4)n2)CN(C(C)C)C3=O)CC1 (stereo not shown) [Example 271, 4-(4-acetylpiperazin-1-yl)-2-(2-phenethylpyrrolidin-1-yl)-8-propan-2-yl-3,5,8-triazabicyclo[4.3.0]nona-1,3,5-trien-7-one]
3200	CC(=O)N1CCN(c2nc3c(c(N4CCC4Cc4ccccc4)n2)CN(C(C)C)C3=O)CC1 (stereo not shown) [Example 273, 4-(4-acetylpiperazin-1-yl)-2-(2-benzylazetidin-1-yl)-8-propan-2-yl-3,5,8-triazabicyclo[4.3.0]nona-1,3,5-trien-7-one]
7700	CC(=O)N1CCN(c2nc3c(c(N4CCC[C@@H]4C(=O)OC(C)(C)C)n2)CN(C(C)C)C3=O)CC1 [Example 277, tert-butyl (2R)-1-[4-(4-acetylpiperazin-1-yl)-7-oxo-8-propan-2-yl-3,5,8-triazabicyclo[4.3.0]nona-1,3,5-trien-2-yl]pyrrolidine-2-carboxylate]
750	CC(=O)N1CCN(c2nc(NCc3noc(C4CCC4)n3)c3c(n2)C(=O)N(C(C)C)C3)CC1 [Example 278, 4-(4-acetylpiperazin-1-yl)-2-[(5-cyclobutyl-1,2,4-oxadiazol-3-yl)methylamino]-8-propan-2-yl-3,5,8-triazabicyclo[4.3.0]nona-1,3,5-trien-7-one]
